Data taken from patent publication US12503426B2, “Synthetic derivatives of oleoyl-lysophosphatidylinositol (oleoyl-LPI) and uses thereof” (LIPOVEXA SRL, priority 2017, dated 2025).

What was measured:
[1] = system: Glutag and NCI-H761 cells; assay: Dose response of GLP-1 release at different glucose concentrations; assay type: cell-based; details: 5 mM glucose, 2 hours, percentage of vehicle control
Procedure: Panels A and B show results of dose response of GLP-1 release in different glucose concentration of 5 mM (panel A) and 10 mM (panel B). The dose response of GLP-1 released was normalised of number of cells measured in parallel. Glutag and […] cells were incubated with vehicle alone, oleoyl-LPI, OEA, LPC forskolin (10 μM) and PMA (1 μM) as positive control for 2 hours. Results were normalised as percentage of cell treated with vehicle (control). For panels A and B data are shown as means±SEM of n=3 from independent experiments performed in duplicates. Student t-test: *p<0.05, **P<0.01. Panel C show results of dose response of GLP-1 release in a glucose concentration of 20 mM.
(§1) Approximately 80,000 Glutag cells were plated in poly-L-lysine-coated 24-well culture plates and grown to about 80% confluence. NCI-H716 cells were seeded on growth factor reduced Matrigel™ (Becton Dickinson, Bedford, MA) in DMEM medium, supplemented with 10% FBS the day before the experiment. For NCI-H716 cells, approximately 25,000 cells were needed for this secretion experiment in order to have good stimulation with lower basal GLP-1 secretion. In brief, Glutag and NCI-H716 cells were washed twice and then incubated for 2 h with FBS-free DMEM containing 1% (M:C) alone (negative control), 10 μM forskolin as positive control (Sigma-Aldrich), or with different concentrations of Oleoyl-LPI. M:C was used as a solvent to prepare stock solutions of fatty acid derivatives and inhibitors. For secretion experiments, medium and cells were collected separately.
To determine the effect of glucose in oleoyl-LPI induced GLP-1 secretion, the inventors conducted dose-response experiment in the presence of 5 mM and 10 mM glucose in the secretion medium with the results outlined in FIG. 2A and FIG. 2B.

NCI-H716 cells = assay: GLP-1 secretion by NCI-H716 cells (Examples 2-8); assay type: cell-based, human; details: 2 hours
Procedure: NCI-H716 cells were maintained in 75 cm^2 tissue culture flasks (Corning) in RPMI 1640 media containing 2.0 mM L-glutamine, 1.5 g/L sodium bicarbonate, 10 mM HEPES buffer, 1.0 mM sodium pyruvate, and 4.5 g/L glucose and supplemented with 10% FBS at a 37° C. and 5% CO2. When plating for experiment, cell adhesion and endocrine differentiation were initiated by growing cells in dishes coated with growth factor reduced Matrigel diluted at the ratio of 1:2 (Becton Dickinson, Bedford, MA) in high-glucose DMEM, 10% FBS, 2 mM glutamine, 100 IU/ml penicillin, and 100 μg/ml streptomycin as described previously by De Bruine, a P., Dinjens, W. N., van der Linden, E. P., Pijls, M. M., Moerkerk, P. T., & Bosman, F. T. (1993) The American Journal of Pathology, Vol 142(3), pp 773-782, the disclosure of which is incorporated herein in its entirety by reference.
as §1
In separate studies, GLUTag or NCI-H716 cells were pre-treated for 1 hour with medium alone (1% DMSO, negative control), PD98059 (50 μM; Sigma Chemical Co.), H89 (10 μM; Santa Cruz) followed by treatment with oleoyl-LPI (20 μM), OEA (10 μM), AR231453(1 μM), PMA (10 μM) or forskolin (10 μM, positive control) in the presence of inhibitors, as appropriate, for about 2 h. Medium GLP-1 secretion was calculated as total GLP-1 content of medium normalised for the basal secretion of the control.
In order to investigate the role of different LPI species in enteroendocrine cells, murine (Glutag) and human (NCI-H716) L-cells were stimulated with the following different species of LPI: Arachidonyl-LPI, Stearoyl-LPI, Heptadecenoyl-LPI and oleoyl-LPI, as well as with OEA and LPC. Experiments were performed in duplicate, n=4 and the level of total GLP-1 was measured by ELISA.

[2] = system: primary culture of mixed colonic preparations; assay: GLP-1 secretion by mixed primary colonic culture; assay type: cell-based, mice
From the text: Mice were euthanized, and 5 cm of colon were used for isolation of epithelial cells following as previously described by Reimann, F., Habib, A. M., Tolhurst, G., Parker, H. E., Rogers, G. J., & Gribble, F. M. (2008), Cell Metabolism, Vol 8(6), pp 532-539, the disclosure of which is incorporated herein by reference in its entirety. Briefly, colon segments were dissected from 10 week-old C57BL/6 male mice. Segments were cut open longitudinally and washed quickly in DMEM (serum-free) to remove luminal contents. Colon was chopped into about 1-2 mm pieces and digested with about 0.5 mg/ml collagenase-P for 15 min. Resulting cell suspensions were filtered through 70 μm nylon cell strainers (BD Falcon, UK), centrifuged at 300 g for 5 min, and pellets re-suspended in DMEM supplemented with 10% FBS. The purified cells were collected and cultured on 24-well Matrigel-coated plates at 37° C. in DMEM (25 mM glucose), 10% FBS, 2 mM L-glutamine, 1% penicillin/streptomycin. On the day of GLP-1 assay, cells were washed twice with PBS, and then treated with LPI or vehicle Methanol: Chloroform, (M:C), v/v for 2 h at 37° C. Supernatants were collected for GLP-1 quantification using the active GLP-1 ELISA kit from Millipore. […]

**Q.** Which GLP-1 secretion ([1]; 10 μM) does the source give for “oleoyl-lysophosphatidylinositol [oleoyl-LPI]” here?
**A.** 126±8%

**Q.** And the GLP-1 secretion ([1]; 20 μM)?
**A.** 223±23%

**Q.** What about the GLP-1 secretion ([1]; 50 μM) of the same substance?
**A.** 333±45%

**Q.** What about the GLP-1 secretion (NCI-H716 cells; NCI-H716 cells, normalised as percentage of cells treated with vehicle (control)) of the same substance?
**A.** 124±7.4%

**Q.** And the “effect of down-regulation of GPR55 on GLP-1 secretion” value (NCI-H716 cells; siGPR55 transfected NCI-H716 cells, oleoyl-LPI 20 μM)?
**A.** no effect on GLP-1 secretion

**Q.** What about the “GLP-1 secretion in siGPR119-transfected cells” value (NCI-H716 cells; siGPR119 transfected NCI-H716 cells, oleoyl-LPI 20 μM) of the same substance?
**A.** significantly reduced the GLP-1 secretion to the basal level

**Q.** What about the GLP-1 release ([2]; GPR119−/− mice compared to wild type control) of the same substance?
**A.** unable to induce GLP-1 release

**Q.** And the “GLP-1 levels, from the basal secretion” value ([2]; wild type mice, two hours treatment)?
**A.** 131±32%
